Laboratory results from patent US20210308077A1, “COMBINATIONS INCLUDING BETA-ADRENORECEPTOR AGONISTS FOR TREATMENT OF PARKINSON`S DISEASE AND MOVEMENT DISORDERS” (The Brigham and Women`s Hospital, Inc., priority 2017, published 2021).
Counter-ions that a name gives are not always drawn.

Tests used:
SNCA mRNA [1] = experiment: endogenous SNCA mRNA expression in SK-N-MC neuroblastoma cells (screening, replication, confirmation; qPCR); format: cell-based, human; conditions: for relative SNCA mRNA abundance, confirmation stage: 10 μM for 48 hours, vs vehicle control
Procedure: Human neuroblastoma SK-N-MC cells were acquired from American Type Culture Collection (ATCC). Cells were cultured at 37° C. in 5% CO2 in DMEM/F12 supplemented with 10% fetal bovine serum (FBS) and 100 units per ml penicillin and streptomycin. The drug library was obtained from the Laboratory for Drug Discovery in Neurodegeneration (LDDN), Harvard NeuroDiscovery Center, Boston, Mass. The drug library consisted of approximately 1,126 small molecules. About 586 of the compounds were from Prestwick Chemical's (Illkirch, France) library, a unique collection of mostly off-patent small organic molecules, 90% being marketed drugs and 10% bioactive alkaloids or related substances. About 400 compounds were from the SPECS collection (available on the world wide web at.specs.net). 140 compounds generated in house by the LDDN were also included in the library. Compounds for the screening were stored as DMSO stocks. All drugs used for Confirmation Assay were purchased from Sigma (St. Louis, Mo.).
Approximately 2×10^4low passage SK-N-MC cells were seeded per well in 384-well cell culture plates for 24 hours. Compounds were then transferred into each well (final concentration 1 μM) by using a BioMekFX (Beckman Coulter) equipped with a 384-channel pipetting head. After 48 hours in cell culture incubator, cells were washed once in cold phosphate-buffered saline (PBS) by using BioTek ELx405 select CW plate washer and then lysed at room temperature (22-24° C.) with lysis buffer (Applied Biosystems) using the Cell-to-CT procedures according to the manufacturer's instructions (Applied Biosystems). After 5 min, lysis was terminated by incubation with stop solution (Applied Biosystems). 11 μL of each lysate were transferred to 384-well plates for RT in a total volume of 25 μl. 4 μL of RT reaction were then transferred to new 384-well plates for qPCR.
Using the Cell-to-CT kit (Applied Biosystems) we performed expression analysis directly from SK-N-MC neuroblastoma cells cultured in 384-well plates through in situ cDNA synthesis. In this miniaturized assay, high copy numbers of SNCA and of endogenous controls were detected as indicated by raw cycle threshold values of 25.11±0.02 (mean CT value±SEM) and 20.2±0.02 for SNCA and Ubiquitin C (UBC), respectively. Technical variation (using identical cDNA loaded in multiple wells) and biological variation (cDNA synthesized in situ in each of 384 wells of cultured SK-N-MC cells treated with DMSO) were low, with coefficients of variation of 1% and 5.2% respectively. At least ten DMSO-treated controls were included on each 384-well plate as negative external control and calibrator. An equal amount of cDNA derived from Universal Reference RNA was spotted on all plates as plate-to-plate control. Control reactions lacking template or reverse transcription were assayed for contamination with genomic DNA.
41 compounds were forwarded into the Replication Assay. For each compound eight wells were treated with drug and compared to eight wells treated with DMSO alone. The Cell-to-CT procedure was employed using two new reference genes, ribosomal protein L13 (RPL13) and glucuronidase beta (GUSB) (instead of UBC) to control for input RNA. […] 10 compounds met these criteria and were forwarded from the Replication into the Confirmation Assay.
The ten forwarded compounds were used in the Confirmation Assay. For each compound ten wells were treated with drug and compared to ten wells treated with DMSO alone. RNA was extracted using TRIzol® following the manufacturers protocol (Life Technologies). Freshly ordered compounds were used. […] Six compounds met these criteria and were forwarded from the Confirmation Assay to the ELISA Assay stage (see below).
Total RNA from flash-frozen mice brain tissue, rodent primary cells, human neuroblastoma cells and iPSC-derived neuronal cells was isolated using TRIzol® (Life Technologies) following the manufacturer's protocol. […]

Snca mRNA [2] = experiment: Snca mRNA in rat primary cortical neurons; format: cell-based; conditions: metaproterenol 5 μM, clenbuterol 20 μM, salbutamol 10 μM, 48 hours
Procedure: (§1) Primary cortical cultures were generated from E18 Sprague-Dawley rat embryos. The cortical region was dissected out in Hank's Balanced Salt Solution buffered with Hepes and dissociated with 0.125% trypsin (Invitrogen) for 17 min at 37 ° C., followed by trituration. Dissociated cells were plated at a density of 5×10^5 cells/well or 2.5×10^5 cells/well in 12-well or 24-well plates, respectively precoated with poly-D lysine (100 μg/mL). The cells were cultured in Neurobasal medium with B-27 supplement (Invitrogen) and glutamax and gentamycin. Half of the medium was changed every 4 days. Cortical neurons were treated with β2AR agonists 10 days post plating. They were then harvested 48 hours post-treatment for mRNA extraction and 72 hours post-treatment for protein extraction.
Total RNA from flash-frozen mice brain tissue, rodent primary cells, human neuroblastoma cells and iPSC-derived neuronal cells was isolated using TRIzol® (Life Technologies) following the manufacturer's protocol. RNA concentration was measured using NanoDrop spectrophotometer (Thermo Fisher Scientific, Wilmington, De.). 2 μg of total RNA was reverse transcribed into cDNA using the High Capacity cDNA Reverse Transcription Kit from Applied Biosystems. Quantitative PCR was performed using TaqMan Universal PCR Master Mix (Applied Biosystems) on an ABI 7900HT instrument (Applied Biosystems) as described previously (31). For mouse brain tissue and rat primary cortical neuron samples, rodent-specific TaqMan Assay on-demand primers and probes were used to assay the relative abundance of target genes, and rodent Rp113 was used as a reference gene to normalize for RNA loading. Similar results were obtained when Actb or Ubc were used as controls for input RNA. For human neuroblastoma and iPSC-derived neuron samples, human TaqMan Assay on-demand probes were used to assay the relative abundance of target genes, and the geometric mean of the three human reference genes RPL13, GUSB and UBC was used to normalize for RNA loading. Expression values were analyzed using the comparative threshold cycle method (31).

α-synuclein protein = α-synuclein protein in rat primary cortical neurons (ELISA); format: cell-based; conditions: metaproterenol 5 μM, clenbuterol 20 μM, salbutamol 10 μM, 72 hours
Procedure: as §1
Protein lysis buffer containing 320 mM sucrose, 5 mM NaF, 1 mM Na3VO4, 10 mM Tris (pH 7.4), 1 mM EGTA, and 1 mM EDTA was used for mice brain tissue lysis. 100 μL of cold extraction buffer was added to each sample and homogenized in a dounce homogenizer. […] Total protein concentrations were determined by BCA assay (Thermo Scientific) according to the manufacturer's instructions. Total α-synuclein was quantified using an α-synuclein-specific sandwich ELISA.
An α-synuclein-specific Meso Scale Discovery (MSD) ELISA assay (described in Ref. (11)) was utilized for endogenous α-synuclein protein measurement. […] After samples were emptied and plate washed 3 times with TBS-T, sulfo-tagged SOY1 mAb (detection Ab) (generated using Sulfo-Tag-NHS-Ester (MSD) diluted in blocking buffer (6.7 ng/μl), was added to the plate (30 μl volumes/well) and shaken for 1 hour at room temperature. Following 3 washes, MSD Read (2×, diluted in ultrapure water) buffer was added and the plates were immediately measured using a MSD Sector 2400 imager. For confirmatory studies, an second α-synuclein-specific ELISA implementation was used employing a different, extensively published anti-α-synuclein detection antibody (Syn-1 mAb) and a different anti-α-synuclein capture antibody (1H9, courtesy Dr. Selkoe).

[3] = system: 6-hydroxydopamine rat model of PD; conditions: 6-hydroxydopamine rat model of PD (reference 9); cited from earlier work
[4] = system: H3K27 acetylation of SNCA promoter and enhancers; experiment: chromatin immunoprecipitation for H3K27ac at SNCA promoter and enhancers in SK-N-MC cells; format: cell-based, human; conditions: clenbuterol 10 μM, valproic acid 100 μM, propranolol 100 μM, vs vehicle
Procedure: Chromatin immunoprecipitation (ChIP) assays were performed using the Simple ChIP Enzymatic Chromatin IP kit protocol as recommended by the manufacturer (Cell Signaling Technology) with slight modifications. Briefly, ChIPs were performed on asynchronously growing SK-N-MC cells treated with clenbuterol (10 μM), valproic acid (100 μM) or propranolol (100 μM). Cross-linking was carried out with 1% formaldehyde for 10 min at room temperature. Cross-linking was subsequently quenched by adding glycine to a final concentration of 1× for 5 min. Cells were collected and washed twice with PBS, then resuspended in 2 mL of lysis buffer (as described in the protocol). After 10 min on ice, cells were treated with micrococcal nuclease and then sonicated to obtain DNA fragments of ˜500 bp as determined by agarose gel electrophoresis with ethidium bromide staining. Protein-DNA complexes were isolated by centrifugation at 10,000 rpm for 10 min. Supernatants with protein-DNA complexes were incubated overnight with rabbit polyclonal antibody directed against acetylated H3K27 (Abcam). Normal rabbit IgG was used as a negative control and Histone H3 rabbit mAb (ChIP formulated) as positive control. 2% of sample was saved as input. Antibody-protein-DNA complexes were further incubated for 2 hours with 30 μl of ChIP-grade Protein G magnetic beads to isolate antibody bound fractions of chromatin. Immuno-complexes were washed with the buffers provided and as described in the kit. Protein-DNA complexes were eluted and cross-links of pull down fractions and inputs (2% of total IP fraction) were reversed by 2 hours incubation in Proteinase K and 5 M NaCl at 65° C. […] 2 μl of immunoprecipitated DNA was analyzed by qPCR using a Power SYBR Green PCR Master mix (Applied Biosystems by Life technologies) on an ABI 7900HT instrument (Applied Biosystems) with the following temperature profile: 3 min of enzyme activation at 95° C. followed by 40 cycles of 95° C. for 15 s and 60° C. for 60 s. Sample from three independent immunoprecipitation assays were analyzed.

H3K27Ac = experiment: immunoblot with antibody against H3K27Ac in SK-N-MC cells; format: cell-based, human; conditions: vs vehicle-treated cells
Procedure: For western blot analysis, protein samples (20 μg) were run on a 4-20% gradient SDS-polyacrylamide gel (Biorad) and transferred onto a polyvinylidene fluoride (PVDF) membrane filter (0.2 μm; Biorad) using an electroblot apparatus (Bio-Rad, Hercules, Calif.) at 100V for 1 h in transfer buffer (25 mM Tris-HCl, 192 mM glycine, 0.1% SDS, 20% (v/v) methanol). The membrane was incubated in blocking solution (50 mM Tris-HCl, 200 mM NaCl, 1 mM MgCl2, pH 7.4) containing 5% non-fat dry milk powder for 1 hour at room temperature. The membrane was processed through sequential incubations with primary antibody overnight at 4° C. followed by incubation with horseradish peroxidase-conjugated species specific secondary antibody at 1:250 dilutions (Thermo Scientific Pierce). Immunoreactive proteins on the membrane were visualized using the SuperSignal™ West Pico Chemiluminescent kit (Thermo Scientific Pierce). Scanned western blots were analyzed using ImageJ software, version 1.47. Pictures were inverted and usually the background signal from an empty lane was subtracted to obtain specific signals for each lane.

Compound: CC(C)NCC(O)c1cc(O)cc(O)c1 (centres unmarked) [metaproterenol]
- relative SNCA mRNA abundance, confirmation stage (SNCA mRNA [1]; SK-N-MC cells): reduced SNCA mRNA abundance
- reduction of SNCA expression in the screening stage (SNCA mRNA [1]; SK-N-MC cells, 48 hours, vs DMSO, final concentration 1 μM): more than 35%
- SNCA mRNA expression, dose dependence (SNCA mRNA [1]; SK-N-MC cells, indicated doses, 48 hours): lowered SNCA mRNA expression in a dose-dependent manner
- endogenous Snca mRNA (Snca mRNA [2]): significantly, but modestly, reduced
- α-synuclein protein levels (α-synuclein protein): significantly, but modestly, reduced

Compound: Nc1nc2ccc(OC(F)(F)F)cc2s1 [riluzole hydrochloride]
- relative SNCA mRNA abundance, confirmation stage (SNCA mRNA [1]; SK-N-MC cells): fourth hit
- dopaminergic neurodegeneration [3]: attenuates dopaminergic neurodegeneration

Compound: CCCC(CCC)C(=O)O [valproic acid]
- relative SNCA mRNA abundance (with H3K27Ac blot) (SNCA mRNA [1]; SK-N-MC cells, vs vehicle-treated cells): increase
- effect of co-treatment on the β2AR agonist effect on SNCA expression (SNCA mRNA [1]; co-treatment of clenbuterol with valproic acid): abrogated the β2AR agonist effect on SNCA expression
- H3K27 acetylation across SNCA promoter and two intronic enhancers (ChIP) [4]: increased H3K27 acetylation
- H3K27Ac levels (Western blotting) (H3K27Ac): increase
